From patent publication US11173103B1, “Retinoids and epidermal stimulants” (Owen Biosciences, Inc., priority 2017, dated 2021)

How the values were obtained:
[1] = system: HBEGF; assay: DNA microarray assay, expression of proliferative/growth-factor related genes; type: cell-based; details: DMSO delivered retinol at 5 ppm; retinyl linoleate and lysophospholipid concentrate at a ratio of 1:0.4
[2] = system: TGF beta 1; assay: as above; type: cell-based; details: DMSO delivered retinol at 5 ppm; retinyl linoleate and lysophospholipid concentrate at a ratio of 1:0.4
[3] = system: TGF alpha; assay: as above; type: cell-based; details: DMSO delivered retinol at 5 ppm; retinyl linoleate and lysophospholipid concentrate at a ratio of 1:0.4
[4] = system: FGF; assay: as above; type: cell-based; details: DMSO delivered retinol at 5 ppm; retinyl linoleate and lysophospholipid concentrate at a ratio of 1:0.4
[5] = system: CSF2; assay: as above; type: cell-based; details: DMSO delivered retinol at 5 ppm; retinyl linoleate and lysophospholipid concentrate at a ratio of 1:0.4
[6] = system: mature murine skin; assay: Histology of punch biopsies of treated murine skin (epidermal thickening, proliferation, keratinocyte differentiation); type: in vivo, mice; details: for basal cell turn over / formation of normally-functioning supra basal granular keratinocytes: applied to the skin of mice, all trans retinoic acid 0.1%, all trans retinol 1.0%
Text: Photomicrographs of murine tissue samples treated according to methods of the present invention are presented the figures. Differing amounts of inter-laminar keratinocyte differentiation were observed. In some cases, there is intra-laminar disruption, in which stratum corneum (SC) and granular layer (GL) are separated, indicating little granular keratinocyte formation and/or suppression of one or both of granular keratinocyte extracellular desmosomal proteins and/or reduced production of laminar granules (proteases, lipids). This was not considered an artifact of the micro-tome blade.
More particularly, histological observations, including degree of “keratinocyte differentiation” are described by reference to photomicrographs of retired breeder mice obtained from Charles River Laboratories, Inc. (Wilmington, Mass.). An area of approximately one square inch was shaved. Test compositions (e.g., control=carrier vehicle with ingredient known to be irritating; test=same carrier and known irritant from control+phospholipid) were administered in accordance with methods of the inventions. Punch biopsies of full thickness skin and subcutaneous fat were taken as follows: skin was swabbed with an antiseptic and injected with a local anaesthetic; an incision was made, and a tissue specimen was removed and preserved in 10% neutral buffered formalin at a volume of approximately ten times that of the tissue). Excision sites were sutured. The preserved tissues samples were sent to Louisiana State University, School of Veterinary Medicine for processing and analysis. More particularly, tissue was processed in graded alcohol [70% (v/v) ethanol, 90% (v/v) ethanol, absolute ethanol] followed by graded xylene [[…], absolute xylene]. Next the processed tissue was placed in blocks/molds filled with paraffin wax liquid, in an orientation with the epidermis on top, with ice on top to hold the tissue in place. Wax blocks were cooled in ice and sectioned at a thickness of 5-15 μm using a microtome with disposable blade (Leica Microtome Model RM2255). Microtomed sections were placed on adhesive slides, incubated at 37° C. for 24 hours (i.e., on slide racks), and then stored in slide containers at room temperature until H&E staining is performed to visualize histological microstructures. All histological samples were micro photographed at 400× under normal light with standard digital equipment. These photos were transferred to PHOTOSHOP® computer imaging software from Adobe Systems Pvt. Ltd., in which measurements of epidermal thickness, SC thickness, granulation, layering were determined.

[7] = bioemulsion applied once daily over 4 consecutive days (retinyl phosphate 1%)
[8] = FIG. 7, bioemulsion with 1% retinyl linoleate
[9] = 1% in a bioemulsion applied once daily over 2 consecutive days
[10] = 1% in a bioemulsion applied once daily over three consecutive days

CC1=C(/C=C/C(C)=C/C=C/C(C)=C/CO)C(C)(C)CCC1 [DMSO Delivered Retinol, Retinol]
HBEGF level of expression (change) [1]: −50%
TGF beta 1 level of expression (change) [2]: −50%
TGF alpha level of expression (change) [3]: +200%
FGF level of expression (change) [4]: −50%
CSF2 level of expression (change) [5]: −25%
basal cell turn over [6]: stimulates
formation of normally-functioning supra basal granular keratinocytes [6]: inhibits or suppresses

CC1=C(/C=C/C(C)=C/C=C/C(C)=C/C(=O)O)C(C)(C)CCC1 [all trans retinoic acid, Retinoic acid]
basal cell turn over [6]: stimulates
formation of normally-functioning supra basal granular keratinocytes [6]: inhibits or suppresses

CC(C=CC1=C(C)CCCC1(C)C)=CC=CC(C)=CCOC(=O)CCC(=O)OCC=C(C)C=CC=C(C)C=CC1=C(C)CCCC1(C)C [diretinyl succinate]
keratinocyte differentiation [6, 7]: de minimis
proliferation [6, 7]: De minimis

CCCCC/C=C\C/C=C\CCCCCCCC(=O)OC/C=C(C)/C=C/C=C(C)/C=C/C1=C(C)CCCC1(C)C [retinyl linoleate, Retinyl linoleate]
SC density [6, 8]: Increased
differentiation [6, 8]: without significant differentiation
proliferation [6, 8]: Increased

CC1=C(/C=C/C(C)=C\C=C\C(C)=C\COP(=O)(O)O)C(C)(C)CCC1 [retinyl phosphate]
keratinocyte differentiation [6, 7]: de minimis
proliferation [6, 7]: De minimis

Glyceryl diretinoate
differentiation [6, 9]: good
proliferation [6, 9]: good

Monoglyceryl retinoate [glyceryl mono retinoate]
differentiation [6, 9]: excellent
proliferation [6, 9]: excellent

acetyl-n-phenylalanine retinoate
differentiation [6, 10]: good
proliferation [6, 10]: good
